Assay results published in patent US9012655B2, “Antimicrobial/adjuvant compounds and methods” (Denouamed, Inc., priority 2011, dated 2015).
Converted amounts (≈) assume the structure as drawn.

Key:
AcpS enzyme = AcpS enzyme (Escherichia coli, UniProt P24224); test: Measurement of AcpS inhibition ([3H]acetyl-CoA incorporation into apo-ACP); type: biochemical; details: % activity vs blank-subtracted counts; for activity at 50 µM / % AcpS activity at 50 uM: test compound 50 uM; for remaining activity at 500 µM / % AcpS activity @ 500 uM: test compound 500 uM
AcpS enzyme, sequence (P24224 whole entry): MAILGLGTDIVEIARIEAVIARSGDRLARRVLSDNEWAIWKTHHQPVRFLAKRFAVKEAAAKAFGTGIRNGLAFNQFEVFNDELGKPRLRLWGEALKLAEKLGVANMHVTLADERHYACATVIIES
Protocol: [^3H]Acetyl-CoA was mixed as 1 volume of Perkin Elmer NET290 radiolabeled stock (e.g. 0.1 mCi/ml, 3.7 Ci/mmol in Na-acetate, pH 4.5-5.0=27 μM) with 1.2 volumes of 1 mM unlabelled acetyl-CoA (Sigma). Trichloroacetic acid was prepared as a 10% w/v solution. Bovine serum albumin was prepared as a 25 mg/ml solution in water. DTT was prepared as a 50 mM solution in water.
• 1. A standard reaction contained the following in a total volume of 10 μl:
• 2. Tubes were incubated at RT. [^3H]acetyl-CoA was added last to start the reaction. To stop the reaction, 2 μl was removed to a 1.5-ml microfuge tube containing 800 μl cold 10% TCA. Up to four time points were collected for each reaction, e.g. at 5 min, 10 min, 30 min, and 60 min. • 3. 20 μl of 25 mg/ml BSA was added to each tube, mixed and incubated on ice for 10 min, then centrifuged at 12,000 g for 5 min to form a pellet. Supernatant was removed using P1000. • 4. Each pellet was washed twice with 800 μl of cold 10% TCA each time, then centrifuged at 12,000 g for 5 min after each wash. The supernatant was discarded. Each pellet was resuspended in 50 μl of formic acid. The suspension was transferred to a scintillation vial and radioactivity was measured in 2 ml of liquid scintillation cocktail.
The random (stochastic) error in scintillation counting is proportional to the square root of the counts (not dpm) accumulated in the counting period; i.e. 10% for 100, 3.3% for 1,000, 1% for 10,000, etc. Provided radioactive counts (dpm) are in the thousands, the assay provides useful data. Results are reported in terms of % activity with respect to the blank-subtracted counts for working substrate. A % activity of less than about 40% is indicative of AcpS enzyme inhibition by the test compound at that concentration.

E. coli D22 = test: MIC, NCCLS M7-A6 broth microdilution, E. coli D22; type: cell-based; details: 35 degrees Celsius; for MIC: Escherichia coli, D22, 16 to 20 h; for MIC E coli D22: 16 to 20 h
Protocol: (§1) Susceptibilities to the compounds were determined using the National Committee for Clinical Laboratory Standards (NCCLS) M7-A6 broth microdilution method. Cation-adjusted Mueller-Hinton broth (Ca^2+, 25 μg/mL; Mg^2+, 12.5 μg/mL) microdilution panels were prepared to contain antimicrobial doubling dilution concentrations of an appropriate range. DMSO (dimethylsulfoxide) controls were incorporated into the panel to mimic the quantity of DMSO used in dissolving some of the compounds at the higher concentrations. Each final panel well volume was 100 μL with a bacterial inoculum of 5×10^5 CFU (colony forming units)/mL of the relevant bacterium. Panels were read following 16 to 20 h of incubation at 35 degrees Celsius in ambient air. The MIC (minimum inhibitory concentration) was defined as the lowest concentration of antimicrobial inhibiting visible growth.

[1] = test system: Methicillin-Resistant Staph. aureus (MRSA); test: MIC, NCCLS M7-A6 broth microdilution, MRSA; type: cell-based; details: 16 to 20 h, 35 degrees Celsius; for MIC: Staphylococcus aureus, MRSA
Protocol: as §1

[2] = test system: Streptococcus pneumoniae Group A; test: MIC against Streptococcus pneumoniae Group A; type: cell-based; details: initial measurement, Todd Hewitt broth
Protocol: as §1
Generally following the procedure of Example 9, but using Todd Hewitt broth (beef heart digest) rather than Mueller-Hinton broth, MICs were initially measured against Streptococcus pneumoniae Group A for compounds of the present invention as follows: […]

MIC [2] | SMILES | activity at 50 µM (AcpS enzyme) | remaining activity at 500 µM (AcpS enzyme) | MIC (E. coli D22) | MIC [1] | % AcpS activity at 50 uM (AcpS enzyme) | % AcpS activity @ 500 uM (AcpS enzyme) | MIC E coli D22 (E. coli D22) | MIC MRSA [1]
 | CCc1ccccc1-c1cc(-c2nnn[nH]2)sc1-c1ccccc1CC [DNM0541, 5-(4,5-Bis(2-ethylphenyl)thiophen-2-yl)-1H-tetrazole] | 63.1% | 0.3% | > 125 µM | 30 µM (≈ 10.8 µg/mL) |  |  |  | 
 | c1ccc2c(c1)oc1c(-c3cc(-c4nnn[nH]4)sc3-c3cccc4c3oc3ccccc34)cccc12 [DNM0542, 5-(4,5-Bis(dibenzo[b,d]furan-4-yl)thiophen-2-yl)-1H-tetrazole] | 9.58% | 0.7% | > 125 µM | 2 µM (≈ 0.969 µg/mL) |  |  |  | 
 | CC(C)(C)c1ccc(-c2cc(-c3nnn[nH]3)sc2-c2ccc(C(C)(C)C)cc2)cc1 [DNM0546, 5-(4,5-Bis(4-tert-butylphenyl)thiophen-2-yl)-1H-tetrazole] | 37.2% | 5.16% | > 125 µM | 4 µM (≈ 1.67 µg/mL) |  |  |  | 
 | FC(F)(F)c1ccccc1-c1cc(-c2nnn[nH]2)sc1-c1ccccc1C(F)(F)F [DNM0549, 5-(4,5-Bis(2-(trifluoromethyl)phenyl)thiophen-2-yl)-1H-tetrazole] | 71.3% | 0.48% | > 125 µM | 30 µM (≈ 13.2 µg/mL) |  |  |  | 
 | FC(F)(F)Oc1ccccc1-c1cc(-c2nnn[nH]2)sc1-c1ccccc1OC(F)(F)F [DNM0550, 5-(4,5-Bis(2-(trifluoromethoxy)phenyl)thiophen-2-yl)-1H-tetrazole] | 47.8% | 0.39% | > 125 µM | 30 µM (≈ 14.2 µg/mL) |  |  |  | 
 | c1ccc(-c2cc(-c3nnn[nH]3)sc2-c2ccccc2-c2ccsc2)c(-c2ccsc2)c1 [DNM0559, 5-(4,5-Bis(2-(thiophen-3-yl)phenyl)thiophen-2-yl)-1H-tetrazole] | 7.01% | 0.5% | > 125 µM | 2 µM (≈ 0.937 µg/mL) |  |  |  | 
 | c1ccc(-c2cc(-c3nnn[nH]3)sc2-c2ccccc2-c2ccoc2)c(-c2ccoc2)c1 [DNM0560, 5-(4,5-Bis(2-(furan-3-yl)phenyl)thiophen-2-yl)-1H-tetrazole] | 63.6% | 0.06% | > 125 µM | 15 µM (≈ 6.55 µg/mL) |  |  |  | 
 | Cc1ccc(-c2cc(-c3nnn[nH]3)sc2-c2ccc(C)cc2Cl)c(Cl)c1 [DNM0563, 5-(4,5-Bis(2-chloro-4-methylphenyl)thiophen-2-yl)-1H-tetrazole] | 15.1% | 0.56% | 125 µM (≈ 50.2 µg/mL) | 8 µM (≈ 3.21 µg/mL) |  |  |  | 
 | COc1c(C)cc(-c2cc(-c3nnn[nH]3)sc2-c2cc(C)c(OC)c(C)c2)cc1C [DNM0564, 5-(4,5-Bis(4-methoxy-3,5-dimethylphenyl)thiophen-2-yl)-1H-tetrazole] | 47.6% | 0.75% | > 125 µM | 15 µM (≈ 6.31 µg/mL) |  |  |  | 
 | COc1ccc(-c2cc(-c3nnn[nH]3)sc2-c2ccc(OC)c(Cl)c2)cc1Cl [DNM0565, 5-(4,5-Bis(3-chloro-4-methoxyphenyl)thiophen-2-yl)-1H-tetrazole] | 22.9% | 0.11% | > 125 µM | 15 µM (≈ 6.5 µg/mL) |  |  |  | 
 | c1ccc(C2CC2)c(-c2cc(-c3nnn[nH]3)sc2-c2ccccc2C2CC2)c1 [DNM0570] |  |  |  |  | 33.7% | 0.19% | 125 µM (≈ 48.1 µg/mL) | 15 µM (≈ 5.77 µg/mL)
 | Brc1ccccc1-c1sc(-c2nnn[nH]2)cc1-c1ccccc1C1CCCC1 [DNM0571] |  |  |  |  | 8.19% | 0.11% | >125 µM | 8 µM (≈ 3.61 µg/mL)
 | Cc1ccc(-c2sc(-c3nnn[nH]3)cc2-c2ccc(Cl)cc2)c2ccccc12 [DNM0572, 5-(4-(4-Chlorophenyl)-5-(4-methylnaphthalen-1-yl)thiophen-2-yl)-1H-tetrazole] | 4.41% | 0.51% | > 125 µM | 8 µM (≈ 3.22 µg/mL) |  |  |  | 
 | Cc1ccc(C2(c3cccc(Cl)c3)C=C(c3nnn[nH]3)SC2)c2ccccc12 (centres unmarked) [DNM0575, 5-(4-(5-Chlorophenyl)-4-(4-methylnaphthalen-1-yl)thiophen-2-yl)-1H-tetrazole] | 5.86% | 0.23% | > 125 µM | 8 µM (≈ 3.24 µg/mL) |  |  |  | 
 | Cc1ccc(-c2cc(-c3nnn[nH]3)sc2Cc2ccc(Cl)cc2)c2ccccc12 [DNM0577, 5-(5-(4-Chlorobenzyl)-4-(4-methylnaphthalen-1-yl)thiophen-2-yl)-1H-tetrazole] | 5.54% | 0.4% | > 125 µM | 8 µM (≈ 3.34 µg/mL) |  |  |  | 
< 0.25 µM | Cc1c(-c2nnn[nH]2)sc(-c2ccc(C)c3ccccc23)c1-c1ccc(C)c2ccccc12 [DNM0620, 5-(4,5-Bis(4-methylnaphthalen-1-yl)-3-methylthiophen-2-yl)-1H-tetrazole] |  |  |  |  |  |  |  | 
< 0.25 µM | Cc1c(-c2nnn[nH]2)sc(-c2ccc(Cl)cc2C(C)C)c1-c1ccc(Cl)cc1C(C)C [DNM0631, 5-(4,5-Bis(4-chloro-2-isopropylphenyl)-3-methylthiophen-2-yl)-1H-tetrazole] |  |  |  |  |  |  |  | 
